In test [1] the target is T1, hCRTH2 receptor (Homo sapiens, UniProt Q9Y5Y4).
T1 construct: expressed in transfected cells
T1 sequence (Q9Y5Y4 1-395): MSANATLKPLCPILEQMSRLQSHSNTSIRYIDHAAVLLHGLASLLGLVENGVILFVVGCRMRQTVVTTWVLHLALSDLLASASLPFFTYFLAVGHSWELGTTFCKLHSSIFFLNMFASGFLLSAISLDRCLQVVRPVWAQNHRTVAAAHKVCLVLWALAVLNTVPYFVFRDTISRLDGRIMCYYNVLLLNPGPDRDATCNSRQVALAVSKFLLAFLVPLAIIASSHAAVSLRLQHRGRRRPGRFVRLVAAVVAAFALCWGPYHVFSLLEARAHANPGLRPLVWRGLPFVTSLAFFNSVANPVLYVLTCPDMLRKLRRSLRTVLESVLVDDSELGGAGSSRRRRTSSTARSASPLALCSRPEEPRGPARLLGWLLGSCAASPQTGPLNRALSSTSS
In words: Intracellular calcium mobilization assay (FLIPR), antagonism of prostaglandin D2. The class given is cell-based. To be noted: HEK-293 cells stably expressing hCRTH2; agonist prostaglandin D2 10 nM final; read-out: FLIPR CRTH2 IC50. Here is the method: Intracellular Calcium Mobilization Assay (FLIPR):
Cells (HEK-293), stably expressing the hCRTH2 receptor under the control of the cytomegalovirus promotor from a single insertion of the expression vector pcDNA5 (Invitrogen), are grown to confluency in DMEM (low glucose, Gibco) medium supplemented with 10% fetal calf serum (both Bioconcept, Switzerland) under standard mammalian cell culture conditions (37° C. in a humidified atmosphere of 5% CO2). Cells are detached from culture dishes using a dissociation buffer (0.02% EDTA in PBS, Gibco) for 1 min, and collected by centrifugation at 200 g at rt for 5 min in assay buffer [equal parts of Hank's BSS (HBSS, Bioconcept) and DMEM (low glucose, without phenol red, Gibco)]. After incubation for 45 min (37° C. and 5% CO2) in the presence of 1 μM Fluo-4 and 0.04% Pluronic F-127 (both Molecular Probes), 20 mM HEPES (Gibco) in assay buffer, the cells are washed with and resuspended in assay buffer, then seeded onto 3 84-welt FLIPR assay plates (Greiner) at 50,000 cells in 66 μl per well, and sedimented by centrifugation.
Stock solutions of test compounds are made up at a concentration of 10 mM in DMSO, and serially diluted in assay buffer to concentrations required for inhibition dose response curves. Prostaglandin D2 (Biomol, Plymouth Meeting, Pa.) is used as an agonist.
A FLIPR384 instrument (Molecular Devices) is operated according to the manufacturer's standard instructions, adding 4 μl of test compound dissolved at 10 mM in DMSO and diluted prior to the experiment in assay buffer to obtain the desired final concentration. 10 μl of 80 nM prostaglandin D2 (Biomol, Plymouth Meeting, Pa.) in assay buffer, supplemented with 0.8% bovine serum albumin (fatty acid content<0.02%, Sigma), is then added to obtain a final concentration of 10 nM and 0.1%, respectively. Changes in fluorescence are monitored before and after the addition of test compounds at λex=488 nm and λem=540 nm. Emission peak values above base level after prostaglandin D2 addition are exported after base line subtraction. Values are normalized to high-level control (no test compound added) after subtraction of base line value (no prostaglandin D2 added). The program XLlfit 3.0 (IDBS) is used to fit the data to a single site dose response curve of the equation (A+((B−A)/(1+((C/x)^D)))) and to calculate the IC50 values.

The target of test [2] is T1, hCRTH2 receptor. In words: CRTH2 membranes radioligand binding assay ({3H}-PGD2). Particulars: membranes of HEK 293 cells expressing recombinant hCRTH2; {3H}-PGD2 2.5 nM; 90 min. Here is the method:
Biological Assay: Preparation of CRTH2 Membranes and Radioligand Binding Assay:
Preparation of the membranes and radioligand binding assays are performed according to known procedures, e.g. Sawyer N. et al. (Br. J. Pharmacol., 2002, 137, 1163-1172). A clonal HEK 293 cell line, expressing high level of recombinant hCRTH2 receptor, is selected for the preparation of membranes. Cells are detached from culture plates in 5 ml buffer A per plate (5 mM Tris, 1 mM MgCl2x6 H2O, 0.1 mM PMSF, 0.1 mM phenanthroline) using a police rubber and transferred into centrifugation tubes and frozen at −80° C. After thawing, the cells are centrifuged at 500 g for 5 min and then resuspended in buffer A. Cells are then fragmented by homogeinization with a Polytron homogenizer for 30 s. The membrane fragments are centrifuged at 3000 g for 40 min and resuspended in membranes in buffer B (50 mM Tris, 25 mM MgCl2, 250 mM saccharose, pH 7.4) and aliquots are stored frozen.
Binding assay is performed in a total volume of 250 μl. In each well, 75 μl buffer C (50 mM Tris, 100 mM NaCl, 1 mM EDTA, 0.1% B SA (protease free), 0.01% NaN3, pH 7.4) is mixed with 50 μl {^3H}-PGD2 (at 2.5 nM (220.000 dpm per well) from Amersham, TRK734), 100 μl CRTH2 membranes to give 80 μg per well and 25 μl of test compound in buffer C containing 1% DMSO. For unspecific binding, PGD2 is added to the reaction mixture at 1 μM final concentration. This binding assay mix is incubated at it for 90 min and then filtered through a GF/C filter plate. The filter is washed three times with ice cold binding buffer. Then, 40 μl per well Microscint-40 (Packard) are added and the bound radioactivity is quantified by means of Topcourt (Packard).

What is called IC50 is the point on the concentration scale where inhibition reaches its midpoint.

Consider `CC(C)(C)OC(=O)N1CCc2c(c3cc(F)ccc3n2CC(=O)O)C1` [5-carboxymethyl-8-fluoro-1,3,4,5-tetrahydro-pyrido[4,3-b]indole-2-carboxylic acid tert-butyl ester], for which, on hCRTH2 receptor [1], the IC50 stood at 22 nM.
Turning to `O=C(O)Cn1c2c(c3cc(C(F)(F)F)ccc31)CN(C(=O)c1ccccc1)CC2` [(2-benzoyl-8-trifluoromethyl-1,2,3,4-tetrahydro-pyrido[4,3-b]indol-5-yl)-acetic acid], the IC50 at hCRTH2 receptor [2] amounted to 1 nM.
For the compound `O=C(O)Cn1c2c(c3ccccc31)CN(C(=O)c1cccc3[nH]ccc13)CC2` [[2-(1H-indole-4-carbonyl)-1,2,3,4-tetrahydro-pyrido[4,3-b]indol-5-yl]-acetic acid], the IC50 on hCRTH2 receptor [1] worked out at 19 nM.
For `Cc1cccc(C(=O)N2CCc3c(c4ccccc4n3CC(=O)O)C2)c1Br` [[2-(2-bromo-3-methyl-benzoyl)-1,2,3,4-tetrahydro-pyrido[4,3-b]indol-5-yl]-acetic acid], the IC50 at hCRTH2 receptor [2] came out at 14 nM.
For the compound `COc1cc(C(=O)N2CCc3c(c4ccccc4n3CC(=O)O)C2)cc(OC)c1OC` [[2-(3,4,5-trimethoxy-benzoyl)-1,2,3,4-tetrahydro-pyrido[4,3-b]indol-5-yl]-acetic acid], the IC50 at hCRTH2 receptor [1] worked out at 91 nM.
Consider `O=C(O)Cn1c2c(c3ccccc31)CN(C(=O)c1cccc(Cl)c1)CC2` [[2-(3-chloro-benzoyl)-1,2,3,4-tetrahydro-pyrido[4,3-b]indol-5-yl]-acetic acid], for which the figures for the concentration for half-maximal inhibition (IC50) on hCRTH2 receptor [2] and on hCRTH2 receptor [1] were 15 nM and 174 nM, respectively.
`O=C(O)Cn1c2c(c3ccccc31)CN(C(=O)c1ccc(Br)cc1)CC2` [[2-(4-bromo-benzoyl)-1,2,3,4-tetrahydro-pyrido[4,3-b]indol-5-yl]-acetic acid]: the IC50 at hCRTH2 receptor [1] is 83 nM.
As to `CCc1ccc(-c2ccc(C(=O)N3CCc4c(c5ccccc5n4CC(=O)O)C3)cc2)cc1` [[2-(4′-ethyl-biphenyl-4-carbonyl)-1,2,3,4-tetrahydro-pyrido[4,3-b]indol-5-yl]-acetic acid], on hCRTH2 receptor [2], the half-maximal inhibitory concentration (IC50) came to 7 nM.
The same measure, in the same setting: to `CCc1ccc(-c2ccc(C(=O)N3CCc4c(c5cc(F)ccc5n4CC(=O)O)C3)cc2)cc1` [[2-(4′-ethyl-biphenyl-4-carbonyl)-8-fluoro-1,2,3,4-tetrahydro-pyrido[4,3-b]indol-5-yl]-acetic acid] belongs 1 nM; to `O=C(O)Cn1c2c(c3ccccc31)CN(C(=O)c1cccc3c(Br)cccc13)CC2` [[2-(5-bromo-naphthalene-1-carbonyl)-1,2,3,4-tetrahydro-pyrido[4,3-b]indol-5-yl]-acetic acid], 12 nM.
As to `O=C(O)Cn1c2c(c3ccccc31)CN(C(=O)c1ccco1)CC2` [[2-(furan-2-carbonyl)-1,2,3,4-tetrahydro-pyrido[4,3-b]indol-5-yl]-acetic acid], on hCRTH2 receptor [1], the IC50 was 88 nM.
Same read-out and setting: to `Cc1cccc(C(=O)N2CCc3c(c4cc(Br)ccc4n3CC(=O)O)C2)c1Br` [[8-bromo-2-(2-bromo-3-methyl-benzoyl)-1,2,3,4-tetrahydro-pyrido[4,3-b]indol-5-yl]-acetic acid] belongs 15 nM.
On to `O=C(O)Cn1c2c(c3cc(Br)ccc31)CN(C(=O)c1cccs1)CC2` [[8-bromo-2-(thiophene-2-carbonyl)-1,2,3,4-tetrahydro-pyrido[4,3-b]indol-5-yl]-acetic acid], for which the 50% inhibitory concentration (IC50) at hCRTH2 receptor [2] was 4 nM.
Take `COc1ccc2ccccc2c1C(=O)N1CCc2c(c3cc(Cl)ccc3n2CC(=O)O)C1` [[8-chloro-2-(2-methoxy-naphthalene-1-carbonyl)-1,2,3,4-tetrahydro-pyrido[4,3-b]indol-5-yl]-acetic acid]: at hCRTH2 receptor [1], the IC50 stood at 3 nM.
Turning to `O=C(O)Cn1c2c(c3cc(Cl)ccc31)CN(C(=O)c1cccs1)CC2` [[8-chloro-2-(thiophene-2-carbonyl)-1,2,3,4-tetrahydro-pyrido[4,3-b]indol-5-yl]-acetic acid], the IC50 on hCRTH2 receptor [1] is 50 nM.
For `O=C(O)Cn1c2c(c3cc(F)ccc31)CN(C(=O)Cc1cccc3ccccc13)CC2` [[8-fluoro-2-(2-naphthalen-1-yl-acetyl)-1,2,3,4-tetrahydro-pyrido[4,3-b]indol-5-yl]-acetic acid], the IC50 at hCRTH2 receptor [2] worked out at 3 nM.
